# In ChEMBL document CHEMBL1201861, “Genomics of Drug Sensitity in Cancer screening data, Wellcome Trust Sanger Institute”:
# Columns and labels:
# Test in all cases: cells
# [1] = tested on: CP66-MEL; format: functional, cell-based, Homo sapiens; settings: Homo sapiens, CP66-MEL;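 further: growth inhibition of CP66-MEL cells determined in a cell viability assay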
# Description: SANGER: Inhibition of human CP66-MEL cell growth in a cell viability assay.
# [2] = tested on: D-263MG; format: functional, cell-based, Homo sapiens; settings: Homo sapiens, D-263MG
# Description: SANGER: Inhibition of human D-263MG cell growth in a cell viability assay.
# [3] = tested on: DU-4475; format: functional, cell-based, Homo sapiens; settings: Homo sapiens, DU-4475
# Description: SANGER: Inhibition of human DU-4475 cell growth in a cell viability assay.
# [4] = tested on: EM-2; format: functional, cell-based, Homo sapiens; settings: Homo sapiens, EM-2;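 further: growth inhibition of EM-2 cells, read out with a cell viability assay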
# Description: SANGER: Inhibition of human EM-2 cell growth in a cell viability assay.
# [5] = tested on: GI-ME-N; format: functional, cell-based, Homo sapiens; settings: Homo sapiens, GI-ME-N;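 further: growth inhibition of human GI-ME-N cells, read out with a cell viability assay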
# Description: SANGER: Inhibition of human GI-ME-N cell growth in a cell viability assay.
# [6] = tested on: HDLM-2; format: functional, cell-based, Homo sapiens; settings: Homo sapiens, HDLM-2;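 further: cell viability assay measuring suppression of HDLM-2 proliferation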
# Description: SANGER: Inhibition of human HDLM-2 cell growth in a cell viability assay.
# [7] = tested on: HuTu80; format: functional, cell-based, Homo sapiens, HUTU-80; settings: Homo sapiens, HuTu80;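 further: growth inhibition of HuTu80 human cells, determined with a cell viability readout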
# Description: SANGER: Inhibition of human HUTU-80 cell growth in a cell viability assay.
# [8] = tested on: JVM-2; format: functional, cell-based, Homo sapiens; settings: Homo sapiens, JVM-2;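 further: growth inhibition of JVM-2 cells determined by a cell viability assay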
# Description: SANGER: Inhibition of human JVM-2 cell growth in a cell viability assay.
# [9] = tested on: KARPAS-299; format: functional, cell-based, Homo sapiens; settings: Homo sapiens, KARPAS-299
# Description: SANGER: Inhibition of human KARPAS-299 cell growth in a cell viability assay.
# [10] = tested on: KS-1; format: functional, cell-based, Homo sapiens; settings: Homo sapiens, KS-1;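 further: growth inhibition of KS-1 cells, read out with a cell viability assay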
# Description: SANGER: Inhibition of human KS-1 cell growth in a cell viability assay.
# [11] = tested on: LB2241-RCC; format: functional, cell-based, Homo sapiens; settings: Homo sapiens, LB2241-RCC;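 further: cell viability assay measuring how strongly the cultured human renal carcinoma line is prevented from growing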
# Description: SANGER: Inhibition of human LB2241-RCC cell growth in a cell viability assay.
# [12] = tested on: LB831-BLC; format: functional, cell-based, Homo sapiens; settings: Homo sapiens, LB831-BLC;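 further: growth inhibition of LB831-BLC cells, read out with a cell viability assay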
# Description: SANGER: Inhibition of human LB831-BLC cell growth in a cell viability assay.
# [13] = tested on: LB996-RCC; format: functional, cell-based, Homo sapiens; settings: Homo sapiens, LB996-RCC
# Description: SANGER: Inhibition of human LB996-RCC cell growth in a cell viability assay.
# [14] = tested on: MEG-01; format: functional, cell-based, Homo sapiens; settings: Homo sapiens, MEG-01;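 further: growth inhibition of MEG-01 cells, read out by a cell viability assay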
# Description: SANGER: Inhibition of human MEG-01 cell growth in a cell viability assay.
# [15] = tested on: MHH-PREB-1; format: functional, cell-based, Homo sapiens; settings: Homo sapiens, MHH-PREB-1;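 further: cell viability assay measuring inhibition of proliferation of human MHH-PREB-1 cells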
# Description: SANGER: Inhibition of human MHH-PREB-1 cell growth in a cell viability assay.
# [16] = tested on: MOLT-4; format: functional, cell-based, Homo sapiens; settings: Homo sapiens, MOLT-4;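 further: growth inhibition of MOLT-4 cells, determined with a cell viability readout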
# Description: SANGER: Inhibition of human MOLT-4 cell growth in a cell viability assay.
# [17] = tested on: MSTO-211H; format: functional, cell-based, Homo sapiens; settings: Homo sapiens, MSTO-211H
# Description: SANGER: Inhibition of human MSTO-211H cell growth in a cell viability assay.
# [18] = tested on: MV4-11; format: functional, cell-based, Homo sapiens, MV-4-11; settings: Homo sapiens, MV4-11;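 further: cell viability readout measuring growth inhibition of human MV-4-11 cells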
# Description: SANGER: Inhibition of human MV-4-11 cell growth in a cell viability assay.
# [19] = tested on: MZ7-mel; format: functional, cell-based, Homo sapiens; settings: Homo sapiens, MZ7-mel;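 further: growth inhibition of human MZ7-mel cells, measured by a cell viability assay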
# Description: SANGER: Inhibition of human MZ7-mel cell growth in a cell viability assay.
# [20] = tested on: NB12; format: functional, cell-based, Homo sapiens; settings: Homo sapiens, NB12;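 further: growth inhibition of human NB12 cells, read out by a cell viability assay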
# Description: SANGER: Inhibition of human NB12 cell growth in a cell viability assay.
# [21] = tested on: NCI-H1155; format: functional, cell-based, Homo sapiens; settings: Homo sapiens, NCI-H1155;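 further: cell growth inhibition measured by a viability assay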
# Description: SANGER: Inhibition of human NCI-H1155 cell growth in a cell viability assay.
# [22] = tested on: NCI-H1304; format: functional, cell-based, Homo sapiens; settings: Homo sapiens, NCI-H1304;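 further: growth inhibition of the cancer cell line, measured in a cell viability assay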
# Description: SANGER: Inhibition of human NCI-H1304 cell growth in a cell viability assay.
# [23] = tested on: NCI-H1395; format: functional, cell-based, Homo sapiens; settings: Homo sapiens, NCI-H1395;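 further: cell viability assay read-out quantifying reduced proliferation of human NCI-H1395 cells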
# Description: SANGER: Inhibition of human NCI-H1395 cell growth in a cell viability assay.
# [24] = tested on: SNU-5; format: functional, cell-based, Homo sapiens; settings: Homo sapiens, SNU-5;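 further: cell viability readout used to measure growth inhibition in human NCI-SNU-5 cells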
# Description: SANGER: Inhibition of human NCI-SNU-5 cell growth in a cell viability assay.
# [25] = tested on: NKM-1; format: functional, cell-based, Homo sapiens; settings: Homo sapiens, NKM-1;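 further: growth inhibition of NKM-1 cells, read out with a cell viability assay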
# Description: SANGER: Inhibition of human NKM-1 cell growth in a cell viability assay.
# [26] = tested on: NMC-G1; format: functional, cell-based, Homo sapiens; settings: Homo sapiens, NMC-G1;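 further: growth inhibition of the NMC-G1 cell line, measured with a cell viability read-out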
# Description: SANGER: Inhibition of human NMC-G1 cell growth in a cell viability assay.
# [27] = tested on: NOS-1; format: functional, cell-based, Homo sapiens; settings: Homo sapiens, NOS-1;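 further: growth inhibition of the human NOS-1 cell line, read out with a cell viability assay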
# Description: SANGER: Inhibition of human NOS-1 cell growth in a cell viability assay.
# [28] = tested on: NTERA-2-cl-D1; format: functional, cell-based, Homo sapiens; settings: Homo sapiens, NTERA-2-cl-D1;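 further: inhibition of cell growth, measured with a cell viability assay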
# Description: SANGER: Inhibition of human NTERA-S-cl-D1 cell growth in a cell viability assay.
# [29] = tested on: OCI-AML2; format: functional, cell-based, Homo sapiens; settings: Homo sapiens, OCI-AML2;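 further: growth inhibition of OCI-AML2 cells, read out with a cell viability assay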
# Description: SANGER: Inhibition of human OCI-AML2 cell growth in a cell viability assay.
# [30] = tested on: RS4-11; format: functional, cell-based, Homo sapiens; settings: Homo sapiens, RS4-11;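 further: growth inhibition of RS4-11 cells, read out by a cell viability assay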
# Description: SANGER: Inhibition of human RS4-11 cell growth in a cell viability assay.
# [31] = tested on: SH-4; format: functional, cell-based, Homo sapiens; settings: Homo sapiens, SH-4;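 further: growth inhibition of SH-4 cells, read out with a cell viability assay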
# Description: SANGER: Inhibition of human SH-4 cell growth in a cell viability assay.
# [32] = tested on: SK-N-DZ; format: functional, cell-based, Homo sapiens; settings: Homo sapiens, SK-N-DZ;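 further: growth inhibition of the cancer cell line, read out through a viability assay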
# Description: SANGER: Inhibition of human SK-N-DZ cell growth in a cell viability assay.
# [33] = tested on: SK-NEP-1; format: functional, cell-based, Homo sapiens; settings: Homo sapiens, SK-NEP-1;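 further: growth inhibition of human SK-NEP-1 cells, read out by a cell viability assay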
# Description: SANGER: Inhibition of human SK-NEP-1 cell growth in a cell viability assay.
# [34] = tested on: SW 954; format: functional, cell-based, Homo sapiens; settings: Homo sapiens, SW 954;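 further: growth inhibition of SW954 human cancer cells, read out as cell viability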
# Description: SANGER: Inhibition of human SW954 cell growth in a cell viability assay.
# [35] = tested on: SW 962; format: functional, cell-based, Homo sapiens; settings: Homo sapiens, SW 962;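 further: growth inhibition of human SW962 cells, read out by a cell viability assay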
# Description: SANGER: Inhibition of human SW962 cell growth in a cell viability assay.
# [36] = tested on: TE-1; format: functional, cell-based, Homo sapiens; settings: Homo sapiens, TE-1;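 further: growth inhibition of the human TE-1 cell line, read out with a cell viability assay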
# Description: SANGER: Inhibition of human TE-1 cell growth in a cell viability assay.
# [37] = tested on: 697; format: functional, cell-based, Homo sapiens; settings: Homo sapiens
# Description: SANGER: Inhibition of human 697 cell growth in a cell viability assay.
# [38] = tested on: ACN; format: functional, cell-based, Homo sapiens; settings: Homo sapiens, ACN;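 further: growth inhibition of the human ACN cell line, read out via cell viability testing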
# Description: SANGER: Inhibition of human ACN cell growth in a cell viability assay.
# [39] = tested on: ALL-PO; format: functional, cell-based, Homo sapiens; settings: Homo sapiens, ALL-PO;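 further: growth inhibition of ALL-PO cells, read out by a cell viability assay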
# Description: SANGER: Inhibition of human ALL-PO cell growth in a cell viability assay.
# [40] = tested on: BT-474; format: functional, cell-based, Homo sapiens; settings: Homo sapiens, BT-474
# Description: SANGER: Inhibition of human BT-474 cell growth in a cell viability assay.
# [41] = tested on: TE-6; format: functional, cell-based, Homo sapiens; settings: Homo sapiens, TE-6;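 further: growth inhibition of TE-6 cells, read out with a cell viability assay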
# Description: SANGER: Inhibition of human TE-6 cell growth in a cell viability assay.
# [42] = tested on: TE-8; format: functional, cell-based, Homo sapiens; settings: Homo sapiens, TE-8;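 further: growth inhibition of TE-8 cells, measured with a cell viability readout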
# Description: SANGER: Inhibition of human TE-8 cell growth in a cell viability assay.
# [43] = tested on: TGBC24TKB; format: functional, cell-based, Homo sapiens; settings: Homo sapiens, TGBC24TKB;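 further: growth inhibition of human TGBC24TKB cells, read out with a cell viability assay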
# Description: SANGER: Inhibition of human TGBC24TKB cell growth in a cell viability assay.
# [44] = tested on: UACC-257; format: functional, cell-based, Homo sapiens; settings: Homo sapiens, UACC-257
# Description: SANGER: Inhibition of human UACC-257 cell growth in a cell viability assay.
# [45] = tested on: VA-ES-BJ; format: functional, cell-based, Homo sapiens; settings: Homo sapiens, VA-ES-BJ;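 further: growth inhibition of the VA-ES-BJ cell line, read out by a cell viability assay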
# Description: SANGER: Inhibition of human VA-ES-BJ cell growth in a cell viability assay.
# [46] = tested on: no-11; format: functional, cell-based, Homo sapiens; settings: Homo sapiens;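 further: growth inhibition of human NO-11 cells, read out with a cell viability assay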
# Description: SANGER: Inhibition of human no-11 cell growth in a cell viability assay.
# [47] = tested on: CAS-1; format: functional, cell-based, Homo sapiens; settings: Homo sapiens, CAS-1;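 further: growth inhibition of CAS-1 cells, measured with a cell viability assay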
# Description: SANGER: Inhibition of human CAS-1 cell growth in a cell viability assay.
# [48] = tested on: COLO-684; format: functional, cell-based, Homo sapiens; settings: Homo sapiens, COLO-684
# Description: SANGER: Inhibition of human COLO-684 cell growth in a cell viability assay.
smiles,measurement,setting,value
CC(C)CCN1c2nc(Nc3cc(F)c(O)c(F)c3)ncc2N(C)C(=O)C1C (stereo unspecified),IC50,[1],> 5 µM
same,IC50,[2],> 5 µM
same,IC50,[3],0.504 µM
same,IC50,[4],2.92 µM
same,IC50,[5],> 5 µM
same,IC50,[6],> 5 µM
same,IC50,[7],3.67 µM
same,IC50,[8],> 5 µM
same,IC50,[9],> 5 µM
same,IC50,[10],> 5 µM
same,IC50,[11],3.69 µM
same,IC50,[12],3.54 µM
same,IC50,[13],> 5 µM
same,IC50,[14],> 5 µM
same,IC50,[15],4.4 µM
same,IC50,[16],3.39 µM
same,IC50,[17],> 5 µM
same,IC50,[18],0.979 µM
same,IC50,[19],> 5 µM
same,IC50,[20],> 5 µM
same,IC50,[21],> 5 µM
same,IC50,[22],> 5 µM
same,IC50,[23],2.47 µM
same,IC50,[24],> 5 µM
same,IC50,[25],> 5 µM
same,IC50,[26],> 5 µM
same,IC50,[27],> 5 µM
same,IC50,[28],> 5 µM
same,IC50,[29],> 5 µM
same,IC50,[30],> 5 µM
same,IC50,[31],> 5 µM
same,IC50,[32],> 5 µM
same,IC50,[33],2.04 µM
same,IC50,[34],2.86 µM
same,IC50,[35],> 5 µM
same,IC50,[36],> 5 µM
same,IC50,[37],2.02 µM
same,IC50,[38],2.67 µM
same,IC50,[39],> 5 µM
same,IC50,[40],> 5 µM
same,IC50,[41],> 5 µM
same,IC50,[42],3.19 µM
same,IC50,[43],> 5 µM
same,IC50,[44],> 5 µM
same,IC50,[45],> 5 µM
same,IC50,[46],> 5 µM
same,IC50,[47],> 5 µM
same,IC50,[48],> 5 µM
Oc1ccc2ccccc2c1SSc1c(O)ccc2ccccc12,IC50,[1],> 32 µM
same,IC50,[2],> 32 µM
same,IC50,[3],> 32 µM
same,IC50,[4],> 32 µM
same,IC50,[5],> 32 µM
same,IC50,[6],> 32 µM
same,IC50,[7],> 32 µM
same,IC50,[8],> 32 µM
same,IC50,[9],> 32 µM
same,IC50,[10],6.89 µM
same,IC50,[11],28 µM
same,IC50,[12],> 32 µM
same,IC50,[13],> 32 µM
same,IC50,[14],> 32 µM
same,IC50,[15],3.47 µM
same,IC50,[16],14 µM
same,IC50,[17],> 32 µM
same,IC50,[18],9.16 µM
same,IC50,[19],> 32 µM
same,IC50,[20],> 32 µM
same,IC50,[21],> 32 µM
same,IC50,[22],> 32 µM
same,IC50,[23],> 32 µM
same,IC50,[24],> 32 µM
same,IC50,[25],> 32 µM
same,IC50,[26],> 32 µM
same,IC50,[27],11.7 µM
same,IC50,[28],> 32 µM
same,IC50,[29],8.06 µM
same,IC50,[30],23.2 µM
same,IC50,[31],> 32 µM
same,IC50,[32],9.2 µM
same,IC50,[33],> 32 µM
same,IC50,[34],> 32 µM
same,IC50,[35],> 32 µM
same,IC50,[36],> 32 µM
same,IC50,[37],> 32 µM
same,IC50,[38],> 32 µM
same,IC50,[39],13.9 µM
same,IC50,[40],7.41 µM
same,IC50,[41],> 32 µM
same,IC50,[42],> 32 µM
same,IC50,[43],> 32 µM
same,IC50,[44],> 32 µM
same,IC50,[45],> 32 µM
same,IC50,[46],> 32 µM
same,IC50,[47],> 32 µM
same,IC50,[48],20.3 µM
